# Source: PMC10708960 (Computational and Structural Biotechnology Journal, 2023)
# Tests used:
# c-Met = conditions: no reference given; cited from earlier work
# c-Src = c-Src (Gallus gallus, UniProt P00523); assay: biochemical; set-up: species or system Chicken
# [1] = test system: c-Met mutations of D1228 and Y1230; conditions: cited from earlier work; for affinity against mutations of D1228 and Y1230: type I inhibitors, Fig. S10
# [2] = test system: c-Met mutations of L1195 and F1200; conditions: type I inhibitors; Fig. S10; cited from earlier work
# c-Met F1200I mutant = conditions: Fig. S10; cited from earlier work
SMILES,activity against mutations of L1195 and F1200 [2],affinity against mutations of D1228 and Y1230 [1],further results
C[C@H]1CNC(=O)c2cnn3ccc(nc23)N[C@H](C)c2cc(F)ccc2O1 [TPX-0005],–,–,affinity for c-Met (c-Met): low affinity
CCN1Cc2c(ccc(F)c2C#N)O[C@@H](C)CNC(=O)c2c(N)nn3ccc1nc23 [TPX-0022],–,–,IC50 (c-Src): 3.7 nM
COc1cc2nccc(Oc3ccc(NC(=O)C4(C(=O)Nc5ccc(F)cc5)CC4)cc3)c2cc1OC [cabozantinib],–,–,ability to overcome mutations of D1228 and Y1230 ([1]; type II inhibitor): could overcome
CNC(=O)c1ccc(-c2cnc3ncc(Cc4ccc5ncccc5c4)n3n2)cc1F [capmatinib],potent activity,low affinity,–
C[C@@H](Oc1cc(-c2cnn(C3CCNCC3)c2)cnc1N)c1c(Cl)ccc(F)c1Cl [crizotinib],–,–,potency for the F1200I mutant (c-Met F1200I mutant): 50 to 200 nM
C[C@@H](c1ccc2nccn2c1)n1nnc2ncc(-c3cnn(C)c3)nc21 [savolitinib],potent activity,low affinity,–
CN1CCC(COc2cnc(-c3cccc(Cn4nc(-c5cccc(C#N)c5)ccc4=O)c3)nc2)CC1 [tepotinib],potent activity,low affinity,–
